This note sets out measurements from patent US8765742B2, “Crystalline methylthioninium chloride hydrates” (Wista Laboratories Ltd., priority 2009, dated 2014).

This series can be described thus: Thermodynamic stability of the crystalline hydrate form at room temperature as a function of relative humidity. The class given is physicochemical. Particulars: over the whole range of relative humidity.

SMILES strings stand for the structures.

For the compound `CN(C)c1ccc2nc3ccc(=[N+](C)C)cc-3sc2c1` [Form B, methylthioninium chloride dihydrate], the “thermodynamic stability at room temperature” value is recorded as “thermodynamically metastable”.
